Measurements published in patent US20260042772A1, “FURO PYRIMIDINE DERIVATES” (Merck Patent GmbH, priority 2022, published 2026).

Assays:
[1] = test system: chloroquine sensitive (CQS) strain (NF54) of P. falciparum; assay: In vitro antiplasmodial activity, Assay A (parasite lactate dehydrogenase assay); type: cell-based; details: Plasmodium falciparum
Method: Test samples were screened for in vitro antiplasmodial activity against a chloroquine sensitive (CQS) strain (NF54) of the malaria parasite P. falciparum. Continuous in vitro cultures of asexual erythrocyte stages of P. falciparum were maintained using a modified version of the method of Trager and Jensen (1976).1 Quantitative assessment of antiplasmodial activity in vitro was determined via the parasite lactate dehydrogenase assay using a modified method described by Makler (1993). The test samples were tested in triplicate on two separate occasions. Further dilutions were prepared in complete medium on the day of the experiment. Samples were tested as a suspension if not completely dissolved. Chloroquine and artesunate were used as the reference drugs. A full dose-response were performed starting at a concentration of 3000 nM, which is then serially diluted 2-fold in complete medium to give 10 concentrations; with the lowest concentration being approximately 6 nM. The same dilution techniques were used for all samples. References were tested at a starting concentration of 1000 ng/mL. The highest concentration of solvent to which the parasites were exposed has no measurable effect on the parasite viability (data not shown).

[2] = test system: CQC sensitive strain (NF54) of P. falciparum; assay: In vitro antiplasmodial activity, Assay B (as described by Vennerstrom et al. 2004); type: cell-based; details: Plasmodium falciparum; NF54, Vennerstrom et al. method
Method: Compounds were screened against CQC sensitive strain (NF54) of P. falciparum in vitro as described by Vennerstrom et al. (2004). A full dose-response were performed starting at a concentration of 3000 nM, which is then serially diluted 2-fold in complete medium to give 10 concentrations; with the lowest concentration being approximately 6 nM. The same dilution techniques were used for all samples. References were tested at a starting concentration of 1000 ng/mL. The highest concentration of solvent to which the parasites were exposed has no measurable effect on the parasite viability (data not shown).

Row | SMILES | IC50 [1] [nM] | IC50 [2] [nM]
1 | C[C@H]1COCCN1C(=O)c1ccc(-c2cc3ncnc(-c4ccnc(C(C)(C)O)c4)c3o2)cc1 [Compound D159, (S)-(4-(4-(2-(2-hydroxypropan-2-yl)pyridin-4-yl)furo[3,2-d]pyrimidin-6-yl)phenyl)(3-methylmorpholino) methanone] | 15 to 50 | < 15
2 | C[C@@H]1COCCN1C(=O)c1ccc(-c2cc3ncnc(-c4ccnc(C(C)(C)O)c4)c3o2)cc1 [Compound D160, (R)-(4-(4-(2-(2-hydroxypropan-2-yl)pyridin-4-yl)furo[3,2-d]pyrimidin-6-yl)phenyl)(3-methylmorpholino) methanone] | 15 to 50 | < 15
3 | CC1CN(C(=O)c2ccc(-c3cc4ncnc(-c5ccnc(C(C)(C)O)c5)c4o3)cc2)CC(C)O1 (stereo not drawn) [Compound D161, (2,6-dimethylmorpholino)(4-(4-(2-(2-hydroxypropan-2-yl)pyridin-4-yl)furo[3,2-d]pyrimidin-6-yl)phenyl)methanone] | < 15 | < 15
4 | CC(C)(O)c1cccc(-c2ncnc3cc(-c4ccc(C(=O)N5C[C@H]6C[C@@H]5CO6)cc4)oc23)c1 [Compound D172, ((1R,4R)-2-oxa-5-azabicyclo[2.2.1]heptan-5-yl)(4-(4-(3-(2-hydroxypropan-2-yl)phenyl)furo[3,2-d]pyrimidin-6-yl)phenyl)methanone] | < 15 | < 15
5 | CC(C)(O)c1cccc(-c2ncnc3cc(-c4ccc(C(=O)N5C[C@@H]6C[C@H]5CO6)cc4)oc23)c1 [Compound D174, ((1S,4S)-2-oxa-5-azabicyclo[2.2.1]heptan-5-yl)(4-(4-(3-(2-hydroxypropan-2-yl)phenyl)furo[3,2-d]pyrimidin-6-yl)phenyl)methanone] | < 15 | < 15
6 | CC(C)(O)c1cc(-c2ncnc3cc(-c4ccc(C(=O)N5C[C@@H]6C[C@H]5CO6)cc4)oc23)ccn1 [Compound D176, ((1S,4S)-2-oxa-5-azabicyclo[2.2.1]heptan-5-yl)(4-(4-(2-(2-hydroxypropan-2-yl)pyridin-4-yl)furo[3,2-d]pyrimidin-6-yl)phenyl)methanone] | < 15 | < 15
7 | CC(C)(O)c1cc(-c2ncnc3cc(-c4ccc(C(=O)N5C[C@H]6C[C@@H]5CO6)cc4)oc23)ccn1 [Compound D177, ((1R,4R)-2-oxa-5-azabicyclo[2.2.1]heptan-5-yl)(4-(4-(2-(2-hydroxypropan-2-yl)pyridin-4-yl)furo[3,2-d]pyrimidin-6-yl)phenyl)methanone] | < 15 | < 15
8 | C[C@H]1CN(C(=O)c2ccc(-c3cc4ncnc(-c5cccc(C(C)(C)O)c5F)c4o3)cc2)CCO1 [Compound D191, (S)-(4-(4-(2-fluoro-3-(2-hydroxypropan-2-yl)phenyl)furo[3,2-d]pyrimidin-6-yl)phenyl)(2-methylmorpholino) methanone] | < 15 | < 15
9 | C[C@@H]1CN(C(=O)c2ccc(-c3cc4ncnc(-c5cccc(C(C)(C)O)c5F)c4o3)cc2)CCO1 [Compound D192, (R)-(4-(4-(2-fluoro-3-(2-hydroxypropan-2-yl)phenyl)furo[3,2-d]pyrimidin-6-yl)phenyl)(2-methylmorpholino) methanone] | < 15 | < 15
10 | C[C@@H]1CN(C(=O)c2ccc(-c3cc4ncnc(-c5cccc(C(C)(C)O)c5F)c4o3)cc2)C[C@@H](C)O1 [Compound D193, ((2R,6R)-2,6-dimethylmorpholino)(4-(4-(2-fluoro-3-(2-hydroxypropan-2-yl)phenyl)furo[3,2-d]pyrimidin-6-yl)phenyl)methanone] | < 15 | < 15
11 | C[C@H]1CN(C(=O)c2ccc(-c3cc4ncnc(-c5cccc(C(C)(C)O)c5F)c4o3)cc2)C[C@H](C)O1 [Compound D194, ((2S,6S)-2,6-dimethylmorpholino)(4-(4-(2-fluoro-3-(2-hydroxypropan-2-yl)phenyl)furo[3,2-d]pyrimidin-6-yl)phenyl)methanone] | < 15 | < 15
12 | C[C@H]1COCCN1C(=O)c1ccc(-c2cc3ncnc(-c4cccc(C(C)(C)O)c4F)c3o2)cc1 [Compound D195, (S)-(4-(4-(2-fluoro-3-(2-hydroxypropan-2-yl)phenyl)furo[3,2-d]pyrimidin-6-yl)phenyl)(3-methylmorpholino) methanone] | < 15 | < 15
13 | C[C@@H]1COCCN1C(=O)c1ccc(-c2cc3ncnc(-c4cccc(C(C)(C)O)c4F)c3o2)cc1 [Compound D196, (R)-(4-(4-(2-fluoro-3-(2-hydroxypropan-2-yl)phenyl)furo[3,2-d]pyrimidin-6-yl)phenyl)(3-methylmorpholino) methanone] | < 15 | < 15
14 | CC(C)(O)c1nccc(-c2ncnc3cc(-c4ccc(C(=O)N5CCOCC5)cc4)oc23)c1F [Compound D207, (4-(4-(3-fluoro-2-(2-hydroxypropan-2-yl)pyridin-4-yl)furo[3,2-d]pyrimidin-6-yl)phenyl)(morpholino) methanone] | < 15 | < 15
15 | CC(C)(O)c1nccc(-c2ncnc3cc(-c4ccc(C(=O)N5C[C@H]6C[C@@H]5CO6)cc4)oc23)c1F [Compound D208, ((1R,4R)-2-oxa-5-azabicyclo[2.2.1]heptan-5-yl)(4-(4-(3-fluoro-2-(2-hydroxypropan-2-yl)pyridin-4-yl)furo[3,2-d]pyrimidin-6-yl)phenyl)methanone] | < 15 | < 15

The next lines start with the values.

Row | IC50 [1] [nM] | IC50 [2] [nM] | SMILES
16 | > 50 | > 50 | CS(=O)(=O)c1ccc(-c2cc3ncnc(-c4ccnc(N5CC(O)C5)c4)c3o2)cc1 [Compound P1, 1-(4-(6-(4-(methylsulfonyl)phenyl)furo [3,2-d]pyrimidin-4-yl)pyridin-2-yl)azetidin-3-ol]
17 | > 50 | < 15 | C[C@@H]1CN(C(=O)c2ccc(-c3cc4ncnc(-c5ccnc(C(C)(C)O)c5)c4o3)cc2)C[C@H](C)O1 [Compound P17, ((2S,6R)-2,6-dimethylmorpholino)(4-(4-(2-(2-hydroxypropan-2-yl)pyridin-4-yl)furo[3,2-d]pyrimidin-6-yl)phenyl)methanone]
18 | 15 to 50 | < 15 | C[C@H]1CN(C(=O)c2ccc(-c3cc4ncnc(-c5ccnc(C(C)(C)O)c5)c4o3)cc2)CCO1 [Compound P18, (S)-(4-(4-(2-(2-hydroxypropan-2-yl)pyridin-4-yl)furo[3,2-d]pyrimidin-6-yl)phenyl)(2-methylmorpholino) methanone]
19 | < 15 | < 15 | C[C@@H]1CN(C(=O)c2ccc(-c3cc4ncnc(-c5ccnc(C(C)(C)O)c5)c4o3)cc2)CCO1 [Compound P19, (R)-(4-(4-(2-(2-hydroxypropan-2-yl)pyridin-4-yl)furo[3,2-d]pyrimidin-6-yl)phenyl)(2-methylmorpholino) methanone]
20 | < 15 | < 15 | C[C@@H]1CN(C(=O)c2ccc(-c3cc4ncnc(-c5cccc(C(C)(C)O)c5F)c4o3)cc2)C[C@H](C)O1 [Compound P20, ((2S,6R)-2,6-dimethylmorpholino)(4-(4-(2-fluoro-3-(2-hydroxypropan-2-yl)phenyl)furo[3,2-d]pyrimidin-6-yl)phenyl)methanone]
21 | < 15 | < 15 | CC(C)(O)c1cccc(-c2ncnc3cc(-c4ccc(C(=O)N5C[C@H]6C[C@@H]5CO6)cc4)oc23)c1F [Compound P21, ((1R,4R)-2-oxa-5-azabicyclo[2.2.1]heptan-5-yl)(4-(4-(2-fluoro-3-(2-hydroxypropan-2-yl)phenyl)furo[3,2-d]pyrimidin-6-yl)phenyl)methanone]
22 | > 50 | > 50 | CC(C)(O)c1cc(-c2ncnc3cc(-c4ccc(C5(C(=O)N6C[C@@H]7C[C@H]6CO7)CC5)cc4)oc23)ccn1 [Compound P23, ((1S,4S)-2-oxa-5-azabicyclo[2.2.1]heptan-5-yl)(1-(4-(4-(2-(2-hydroxypropan-2-yl)pyridin-4-yl)furo[3,2-d]pyrimidin-6-yl)phenyl)cyclopropyl) methanone]
23 | > 50 | > 50 | CC(C)(O)c1cc(-c2ncnc3cc(-c4ccc(C5(C(=O)N6C[C@H]7C[C@@H]6CO7)CC5)cc4)oc23)ccn1 [Compound P24, ((1R,4R)-2-oxa-5-azabicyclo[2.2.1]heptan-5-yl)(1-(4-(4-(2-(2-hydroxypropan-2-yl)pyridin-4-yl)furo[3,2-d]pyrimidin-6-yl)phenyl)cyclopropyl) methanone]
24 | > 50 | – | CC(C)(O)c1cc(-c2ncnc3cc(-c4ccc(C(=O)N5CCOCC5)cc4)oc23)ccc1F [Compound P32, (4-(4-(4-fluoro-3-(2-hydroxypropan-2-yl)phenyl)furo[3,2-d]pyrimidin-6-yl)phenyl)(morpholino) methanone]
25 | 15 to 50 | – | CC(C)(O)c1cccc(-c2ncnc3cc(-c4ccc(S(N)(=O)=O)cc4)oc23)c1F [Compound P33, 4-(4-(2-fluoro-3-(2-hydroxypropan-2-yl)phenyl)furo[3,2-d]pyrimidin-6-yl)benzenesulfonamide]
